Structures are written as SMILES.

The experiment addresses T1, Toll-like receptor 9 (Homo sapiens, UniProt Q9NR96).
T1 sequence (Q9NR96 whole entry): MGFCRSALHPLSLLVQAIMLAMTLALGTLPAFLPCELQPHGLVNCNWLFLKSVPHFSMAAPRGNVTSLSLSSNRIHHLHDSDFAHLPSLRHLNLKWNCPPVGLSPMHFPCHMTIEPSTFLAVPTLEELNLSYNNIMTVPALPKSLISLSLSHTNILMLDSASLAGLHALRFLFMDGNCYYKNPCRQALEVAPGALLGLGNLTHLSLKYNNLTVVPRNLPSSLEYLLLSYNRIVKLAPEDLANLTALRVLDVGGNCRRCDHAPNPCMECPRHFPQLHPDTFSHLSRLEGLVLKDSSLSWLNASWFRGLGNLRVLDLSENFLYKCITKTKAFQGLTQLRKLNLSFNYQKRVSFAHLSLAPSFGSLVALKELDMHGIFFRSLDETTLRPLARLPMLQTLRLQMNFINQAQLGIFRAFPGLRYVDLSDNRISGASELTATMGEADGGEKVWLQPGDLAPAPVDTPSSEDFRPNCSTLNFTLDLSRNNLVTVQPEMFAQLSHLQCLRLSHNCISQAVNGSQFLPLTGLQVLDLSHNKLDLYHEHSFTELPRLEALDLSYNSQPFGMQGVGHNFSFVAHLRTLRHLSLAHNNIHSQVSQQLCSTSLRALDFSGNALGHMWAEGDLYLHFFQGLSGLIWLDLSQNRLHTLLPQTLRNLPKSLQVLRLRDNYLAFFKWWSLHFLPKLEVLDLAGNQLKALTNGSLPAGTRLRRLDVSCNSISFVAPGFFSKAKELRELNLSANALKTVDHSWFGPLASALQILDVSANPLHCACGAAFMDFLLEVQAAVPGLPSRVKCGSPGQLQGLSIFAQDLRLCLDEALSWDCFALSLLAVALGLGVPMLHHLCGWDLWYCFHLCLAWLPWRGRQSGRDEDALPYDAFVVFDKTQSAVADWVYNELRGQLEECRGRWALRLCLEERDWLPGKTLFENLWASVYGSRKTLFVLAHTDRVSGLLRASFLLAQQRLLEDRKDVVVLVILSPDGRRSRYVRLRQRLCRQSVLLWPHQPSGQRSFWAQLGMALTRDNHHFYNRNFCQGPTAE
In words: TLR9 Antagonism Assay: Day 1: A cell suspension of HEK-Blue™-hTLR9 cells at ~450,000 cells per ml in test medium which contained 5% (v/v) heat inactivated FBS was prepared. 180 μl of cell suspension (~80,000 cells) was added per well of a flat-bottom 96-well plate and place in an incubator at 37° C. for overnight. Day 2: Test compounds were serially diluted in test medium, generally starting at 10 μM, and diluting by 3 fold in a 96 well master plate. 20 μl of diluted test compound was transferred using a 12 channel multi-channel pipet to the cell plate and incubated at 37° C. for 1 hour. Then 20 μl of an hTLR9 agonist (such as ODN 2006, 1 μM) was added to each well and the plate incubated at 37° C. overnight. Day 3: Invivogen's QUANTI-Blue™ was prepared following the manufacturer's instructions. […] of resuspended QUANTI-Blue™ was added per well of a flat bottom 96-well plate. 20 μl per well of induced HEK-Blue™-hTLR9 cells supernatant was then added to the plate and the plate was incubated at 37° C. for 1-3 h. SEAP levels were determined using a spectrophotometer at 620 nm.
In the case of `CCCCSc1nc(NCCN2CCOCC2)c2nc(O)n(CCN3CCOCC3)c2n1`, the 50% inhibitory concentration (IC50) – broadly, the concentration at which inhibition is half-maximal – was 11.1 µM. This lies in the double-digit micromolar range.
Consider `CCN1CCN(c2ccc(-c3nc(NCCN4CCOCC4)c4nc[nH]c4n3)cc2)CC1`, for which the IC50 amounted to 0.142 µM. Compared with the last compound, the IC50 is about 78-fold lower.
For `CN1CCN(CCNc2nc(-c3ccccc3)nc3c2ncn3CCN2CCN(C)CC2)CC1`, the concentration for half-maximal inhibition (IC50) was 0.604 µM.
With `CN1CCN(CCNc2nc(-c3ccccc3)nc3c2ncn3CCN2CCOCC2)CC1`, the IC50 came to 3.29 µM. This IC50 lies about 5.4-fold higher than the previous one.
In turn, `CN1CCN(c2ccc(-c3nc(NCCN4CCOCC4)c4nc[nH]c4n3)cc2)CC1` registered an IC50 of 0.072 µM.
In the case of `c1ccc(-c2nc(NCCN3CCOCC3)c3ncn(CCN4CCOCC4)c3n2)cc1`, the IC50 came out at 7.53 µM. This IC50 lies about 100-fold higher than the previous one.
The compound `Oc1nc2c(NCCN3CCOCC3)nc(-c3ccccc3)nc2n1CCN1CCOCC1` returned an IC50 of 8.01 µM.
Under `CCOC(=O)Cn1cnc2c(NCCN3CCOCC3)nc(-c3ccc(N4CCN(C)CC4)cc3)nc21` stands 5.2 µM.

The record behind these values is ChEMBL document CHEMBL3886743, “Immune system modulators” (2016).
